Test results published in patent US20170349949A1, “METHODS OF SELECTING SUBJECTS FOR TREATMENT WITH METABOLIC MODULATORS” (Partikula LLC, priority 2016, published 2017).

Tests used:
HCT116 tumors = experiment: KULA2 in mice harboring HCT116 tumors (MPC null); type: in vivo; settings: comparator results named beside KULA2 in HCT116; dose and source not given
Procedure: CT26 is the MPC+ group. MPC levels were verified via western blotting or otherwise known (see, e.g., Schell, et al., Molecular Cell, 56:400-413 (2014)).
In both models HCT116 and CT26 the mice (between 8-10 per arm) were dosed with KULA2 via i.p. injection and vehicle, HCT116 tumors at a dose of 20 mg/kg, and CT26 tumors at a dose of 18 mg/kg. Dosing schedule in both cases was 5 days on, 2 days off for the duration of the study.
Experiments were designed to determine if MPC expression correlates with the efficacy of PDK inhibitor. A PDK inhibitor, KULA2, was administered to mice harboring HCT116 tumors (at a dose of 20 mg/kg) or CT26 tumors (at a dose of 18 mg/kg).

pyruvate dehydrogenase = settings: highly purified pyruvate dehydrogenase, cited from earlier work
A549 cells = experiment: Extracellular lactate after PDK inhibitor, with or without UK5099 pre-treatment; type: cell-based; settings: 16 hrs UK5099 pre-treatment, then DCA 50 mM or KULA2 500 μM for 6 hrs
Procedure: A549 cells were pre-treated for 16 hrs with the MPC inhibitor UK5099 and then subsequently treated with the test articles for 6 hrs; extracellular lactate was then measured. Dichloroacetate (DCA) and KULA2, a dichloroacetate (DCA) analogue targeted to the mitochondria with a lipophilic triphenylphosphonium (TPP) cation moiety, were used ((Pathak R K et al., ACS Chem. Biol., 9 (5) 1178-1187 (2014), (Pathak R K et al., ACS Chem. Biol., 9 (5) 1178-1187 (2014), and WO/2015/002996). DCA is dosed at 50 mM and KULA2 is dosed at 500 μM.

Compound | tumor inhibition (comparators) (HCT116 tumors) | other results
CNC(=O)c1cc(Oc2ccc(NC(=O)Nc3ccc(Cl)c(C(F)(F)F)c3)cc2)ccn1 [sorafenib] | 17% | –
Cc1ncc(C[n+]2csc(CCO[P@](=O)(O)OP(=O)(O)O)c2C)c(N)n1 [TPP, thiamine pyrophosphate] | – | Km (pyruvate dehydrogenase; read-out: Km of cofactor): 0.11 µM
Cc1ncc(C[n+]2csc(CCO)c2C)c(=O)[nH]1 [oxythiamine, Oxythiamine] | – | Ki (pyruvate dehydrogenase; oxythiamine diphosphate ester, read-out: KI against the normal cofactor TPP): 0.07 µM
N.N.[Cl][Pt][Cl] [cisplatin] | 22% | –
VEGF-TRAP: comparator named for tumor inhibition | 22% | –
N#C/C(=C\c1cn(-c2ccccc2)c2ccccc12)C(=O)O [UK5099] | – | effect of MPC inhibition on lactate reduction by PDK inhibitors (A549 cells): lowers the lactate reduction normally seen with PDK inhibitors
